What was measured:
[1] = test system: CYP1A1; test: Toxicity in Sprague-Dawley rat assessed as induction of CYP1A1 gene expression in liver administered as cumulative dose of 15 mg/kg, ip divided into 6 injections for 2 weeks followed by compound washout period of 14 days by RT-PCR analysis relative to control; assay type: organism-based; design: dose 15 mg/kg, route intraperitoneal
[2] = test system: Rattus norvegicus; test: Cardiotoxicity in Sprague-Dawley rat assessed as increase in CYP4F4 gene expression level administered as cumulative dose of 15 mg/kg, ip divided into 6 injections for 2 weeks followed by compound washout period of 14 days by RT-PCR analysis relative to control; assay type: toxicity, organism-based; design: dose 15 mg/kg, route intraperitoneal; details: in vivo, 336 h
[3] = test system: Rattus norvegicus; test: Cardiotoxicity in Sprague-Dawley rat assessed as increase in sEH activity in heart microsomes administered as cumulative dose of 15 mg/kg, ip divided into 6 injections for 2 weeks followed by compound washout period of 14 days by RT-PCR analysis relative to control; assay type: toxicity, organism-based; design: dose 15 mg/kg, route intraperitoneal; details: 336 h
[4] = test system: Rattus norvegicus; test: Toxicity in Sprague-Dawley rat assessed as CYP1A2 gene expression in kidney administered as cumulative dose of 15 mg/kg, ip divided into 6 injections for 2 weeks followed by compound washout period of 14 days by RT-PCR analysis relative to control; assay type: organism-based; design: dose 15 mg/kg, route intraperitoneal; details: in vivo, 336 h
[5] = test system: Rattus norvegicus; test: (§1) Induction of epoxygenase-mediated arachidonic acid metabolism in Sprague-Dawley rat heart microsomes assessed as EET/DHET formation administered as cumulative dose of 15 mg/kg, ip divided into 6 injections for 2 weeks followed by compound washout period of 14 days by LC-ESI-MS analysis relative to control; assay type: ADME, organism-based; design: dose 15 mg/kg, route intraperitoneal; details: 336 h
[6] = test system: Rattus norvegicus; test: (§2) Induction of CYP450-mediated arachidonic acid metabolism in Sprague-Dawley rat heart microsomes assessed as 8,9-EET formation administered as cumulative dose of 15 mg/kg, ip divided into 6 injections for 2 weeks followed by compound washout period of 14 days by LC-ESI-MS analysis relative to control; assay type: ADME, organism-based; design: dose 15 mg/kg, route intraperitoneal; details: 336 h
[7] = test system: CYP4A3; test: Cardiotoxicity in Sprague-Dawley rat assessed as increase in CYP4A3 gene expression level administered as cumulative dose of 15 mg/kg, ip divided into 6 injections for 2 weeks followed by compound washout period of 14 days by RT-PCR analysis relative to control; assay type: toxicity, organism-based; design: dose 15 mg/kg, route intraperitoneal; details: heart
[8] = test system: Rattus norvegicus; test: Cardiotoxicity in Sprague-Dawley rat assessed as increase in sEH activity in heart cytosol administered as cumulative dose of 15 mg/kg, ip divided into 6 injections for 2 weeks followed by compound washout period of 14 days by RT-PCR analysis relative to control; assay type: toxicity, organism-based; design: dose 15 mg/kg, route intraperitoneal; details: 336 h
[9] = test system: Rattus norvegicus; test: Toxicity in Sprague-Dawley rat assessed as induction of TNF-alpha gene expression in kidney administered as cumulative dose of 15 mg/kg, ip divided into 6 injections for 2 weeks followed by compound washout period of 14 days by RT-PCR analysis relative to control; assay type: organism-based; design: dose 15 mg/kg, route intraperitoneal; details: 336 h
[10] = test system: Rattus norvegicus; test: Toxicity in Sprague-Dawley rat assessed as CYP4A1 gene expression in kidney administered as cumulative dose of 15 mg/kg, ip divided into 6 injections for 2 weeks followed by compound washout period of 14 days by RT-PCR analysis relative to control; assay type: organism-based; design: dose 15 mg/kg, route intraperitoneal; details: in vivo, 336 h
[11] = test system: Rattus norvegicus; test: Cardiotoxicity in Sprague-Dawley rat assessed as increase in ANP gene expression level administered as cumulative dose of 15 mg/kg, ip divided into 6 injections for 2 weeks followed by compound washout period of 14 days by RT-PCR analysis relative to control; assay type: toxicity, organism-based; design: dose 15 mg/kg, route intraperitoneal; details: 336 h
[12] = test system: Rattus norvegicus; test: as §2, with “11,12-EET” for “8,9-EET”; assay type: ADME, organism-based; design: dose 15 mg/kg, route intraperitoneal; details: 336 h
[13] = test system: Rattus norvegicus; test: Toxicity in Sprague-Dawley rat assessed as CYP4A3 gene expression in kidney administered as cumulative dose of 15 mg/kg, ip divided into 6 injections for 2 weeks followed by compound washout period of 14 days by RT-PCR analysis relative to control; assay type: organism-based; design: dose 15 mg/kg, route intraperitoneal; details: in vivo, 336 h
[14] = test system: Rattus norvegicus; test: Toxicity in Sprague-Dawley rat assessed as CYP2E1 gene expression in kidney administered as cumulative dose of 15 mg/kg, ip divided into 6 injections for 2 weeks followed by compound washout period of 14 days by RT-PCR analysis relative to control; assay type: organism-based; design: dose 15 mg/kg, route intraperitoneal; details: in vivo, 336 h
[15] = test system: CYP4F5; test: Cardiotoxicity in Sprague-Dawley rat assessed as increase in CYP4F5 gene expression level administered as cumulative dose of 15 mg/kg, ip divided into 6 injections for 2 weeks followed by compound washout period of 14 days by RT-PCR analysis relative to control; assay type: toxicity, organism-based; design: dose 15 mg/kg, route intraperitoneal; details: heart
[16] = test system: H9c2; test: Cytotoxicity against rat H9c2 cells assessed as reduction in BNP mRNA expression at 1 uM after 6 hrs in presence of t-AUCB; assay type: cell-based; details: h9c2, 6 h
[17] = test system: CYP1B1; test: Toxicity in Sprague-Dawley rat assessed as induction of CYP1B1 gene expression in liver administered as cumulative dose of 15 mg/kg, ip divided into 6 injections for 2 weeks followed by compound washout period of 14 days by RT-PCR analysis relative to control; assay type: organism-based; design: dose 15 mg/kg, route intraperitoneal
[18] = test system: Rattus norvegicus; test: Toxicity in Sprague-Dawley rat assessed as sEH gene expression in kidney administered as cumulative dose of 15 mg/kg, ip divided into 6 injections for 2 weeks followed by compound washout period of 14 days by RT-PCR analysis; assay type: organism-based; design: dose 15 mg/kg, route intraperitoneal; details: in vivo, 336 h
[19] = test system: Rattus norvegicus; test: Toxicity in Sprague-Dawley rat assessed as CYP2C11 gene expression in kidney administered as cumulative dose of 15 mg/kg, ip divided into 6 injections for 2 weeks followed by compound washout period of 14 days by RT-PCR analysis relative to control; assay type: organism-based; design: dose 15 mg/kg, route intraperitoneal; details: in vivo, 336 h
[20] = test system: H9c2; test: Cytotoxicity against rat H9c2 cells assessed as reduction in ANP mRNA expression at 1 uM after 6 hrs in presence of HET0016; assay type: cell-based; details: h9c2, 6 h
[21] = test system: Rattus norvegicus; test: as §1, with “20-HETE” for “EET/DHET”; assay type: ADME, organism-based; design: dose 15 mg/kg, route intraperitoneal; details: 336 h
[22] = test system: CYP4F1; test: Cardiotoxicity in Sprague-Dawley rat assessed as increase in CYP4F1 gene expression level administered as cumulative dose of 15 mg/kg, ip divided into 6 injections for 2 weeks followed by compound washout period of 14 days by RT-PCR analysis relative to control; assay type: toxicity, organism-based; design: dose 15 mg/kg, route intraperitoneal; details: heart
[23] = test system: Rattus norvegicus; test: Induction of CYP450-mediated arachidonic acid metabolism in Sprague-Dawley rat heart microsomes assessed as 5,6-EET formation administered as cumulative dose of 15 mg/kg, ip divided into 6 injections for 2 weeks followed by compound washout period of 14 days by LC-ESI-MS analysis relative to control; assay type: ADME, organism-based; design: dose 15 mg/kg, route intraperitoneal; details: 336 h
[24] = test system: Rattus norvegicus; test: Toxicity in Sprague-Dawley rat assessed as inhibition of CYP2B2 gene expression in kidney administered as cumulative dose of 15 mg/kg, ip divided into 6 injections for 2 weeks followed by compound washout period of 14 days by RT-PCR analysis relative to control; assay type: organism-based; design: dose 15 mg/kg, route intraperitoneal; details: in vivo, 336 h
[25] = test system: Rattus norvegicus; test: Cardiotoxicity in Sprague-Dawley rat assessed as increase in CYP2J3 gene expression level administered as cumulative dose of 15 mg/kg, ip divided into 6 injections for 2 weeks followed by compound washout period of 14 days by RT-PCR analysis relative to control; assay type: toxicity, organism-based; design: dose 15 mg/kg, route intraperitoneal; details: in vivo, 336 h
[26] = test system: Rattus norvegicus; test: Toxicity in Sprague-Dawley rat assessed as sEH gene expression in liver administered as cumulative dose of 15 mg/kg, ip divided into 6 injections for 2 weeks followed by compound washout period of 14 days by RT-PCR analysis; assay type: organism-based; design: dose 15 mg/kg, route intraperitoneal; details: in vivo, 336 h
[27] = test system: Rattus norvegicus; test: Cardiotoxicity in Sprague-Dawley rat assessed as increase in CYP1B1 gene expression level administered as cumulative dose of 15 mg/kg, ip divided into 6 injections for 2 weeks followed by compound washout period of 14 days by RT-PCR analysis relative to control; assay type: toxicity, organism-based; design: dose 15 mg/kg, route intraperitoneal; details: in vivo, 336 h

With `COc1cccc2c1C(=O)c1c(O)c3c(c(O)c1C2=O)C[C@@](O)(C(=O)CO)C[C@@H]3O[C@H]1C[C@H](N)[C@H](O)[C@H](C)O1` [DOXORUBICIN] the fold induction at 336 h [1] was 2.8, the Activity [2] was “Non-toxic” and the Ratio [3] was 1.6. For the same compound, the Activity [4] was “Non-toxic”, the Activity [5] was “Toxic” and the Activity [6] was “Active”. For the same compound, the fold induction at 336 h [7] was 2, the Ratio [8] was 1.3 and the fold induction at 15 mg/kg [9] was 2.9. For the same compound, the Activity [10] was “Non-toxic”, the fold induction at 15 mg/kg [11] was 3.5 and the Activity [12] was “Active”. The Activity [13] was “Non-toxic”, the Activity [14] was “Non-toxic” and the fold induction at 336 h [15] was 2. The Activity [16] was “Toxic”, the fold induction at 336 h [17] was 2.5 and the Activity [18] was “Non-toxic”. The Activity [19] was “Non-toxic”, the Activity [20] was “Toxic” and the Activity [21] was “Toxic”. For the same compound, the fold induction at 336 h [22] was 1.6, the Activity [23] was “Active” and the Ratio [24] was 0.74. The Activity [25] was “Non-toxic”, the Activity [26] was “Non-toxic” and the Activity [27] was “Non-toxic”.

Source: ChEMBL document CHEMBL3525908, “Chronic doxorubicin cardiotoxicity modulates cardiac cytochrome P450-mediated arachidonic acid metabolism in rats” (Drug Metab Dispos, 2012)
